Results published in patent US9073855B2, “BCL-2 selective apoptosis-inducing agents for the treatment of cancer and immune diseases” (AbbVie Inc., priority 2008, dated 2015).

Columns and labels:
GST-Bcl-2 = GST-Bcl-2 (Homo sapiens, UniProt P10415); assay: TR-FRET binding assay, GST-Bcl-2 with F-Bak peptide probe; conditions: for Ki: TR-FRET Binding Affinity, GST-Bcl-2, F-Bak peptide probe
Outline: (§1)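 Compounds were serially diluted in DMSO from a 50 μM starting solution (2× the starting concentration; 10% DMSO). Plates were incubated for 3 h at room temperature, and TR-FRET was read with 340/35 nm excitation and emission at 520/525 nm (F-Bak) and 495/510 nm (Tb antibody). Ki values were calculated using Wang's competitive-binding equation.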

GST-Bcl-XL = GST-Bcl-XL (Homo sapiens, UniProt Q07817); assay: TR-FRET binding assay, GST-Bcl-XL with F-Bak peptide probe; conditions: TR-FRET Binding Affinity, GST-Bcl-XL, F-Bak peptide probe
Chain of GST-Bcl-XL (Q07817 whole entry): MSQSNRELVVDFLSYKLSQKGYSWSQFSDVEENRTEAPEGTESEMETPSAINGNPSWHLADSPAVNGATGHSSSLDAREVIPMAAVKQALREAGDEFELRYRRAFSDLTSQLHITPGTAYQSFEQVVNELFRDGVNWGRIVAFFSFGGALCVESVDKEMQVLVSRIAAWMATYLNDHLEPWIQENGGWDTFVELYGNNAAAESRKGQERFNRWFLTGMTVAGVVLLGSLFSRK
Outline: as §1

FL5.12/Bcl-2 cells = assay: FL5.12/Bcl-2 cell viability assay under IL-3 withdrawal (CellTitre Glo); format: cell-based, murine; conditions: Mus musculus, IL-3 withdrawn 48 hrs, then 24 hrs with compound
Outline: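 Viability measured by CellTitre Glo after FL5.12/Bcl-2 murine cells, starved of IL-3 for 48 hrs, were treated with compounds for another 24 hrs. Killing reflects inhibition of Bcl-2 sequestration of Bim and Puma.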

Chain of GST-Bcl-2 (P10415 whole entry): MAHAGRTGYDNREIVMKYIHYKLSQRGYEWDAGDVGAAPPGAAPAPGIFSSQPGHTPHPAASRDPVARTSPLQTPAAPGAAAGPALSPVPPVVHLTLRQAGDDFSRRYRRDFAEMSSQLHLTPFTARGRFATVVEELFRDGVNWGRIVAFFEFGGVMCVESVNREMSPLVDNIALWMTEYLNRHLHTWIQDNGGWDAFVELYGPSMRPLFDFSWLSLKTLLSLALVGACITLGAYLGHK

Compound | Ki (GST-Bcl-2) [nM] | Ki (GST-Bcl-XL) [nM] | EC50 (FL5.12/Bcl-2 cells) [nM] | Binding selectivity ratio (Bcl-XL Ki/Bcl-2 Ki) (GST-Bcl-2; ratio of TR-FRET Ki values, Bcl-XL over Bcl-2)
CN(C)CCOc1ccc(-c2ccc(Cl)cc2)c(CN2CCN(c3ccc(C(=O)NS(=O)(=O)c4ccc(NN5CCN(C)CC5)c([N+](=O)[O-])c4)c(Oc4cccc5[nH]ccc45)c3)CC2)c1 [Example 274, 4-[4-({4′-chloro-4-[2-(dimethylamino)ethoxy]-1,1′-biphenyl-2-yl}methyl)piperazin-1-yl]-2-(1H-indol-4-yloxy)-N-({4-[(4-methylpiperazin-1-yl)amino]-3-nitrophenyl}sulfonyl)benzamide] | 0.135 | 32.9 | 155 | –
CC1(C)CCC(CN2CCN(c3ccc(C(=O)NS(=O)(=O)c4cnc(OCC5(F)CCOCC5)c(C#N)c4)c(Oc4cccc5[nH]ncc45)c3)CC2)=C(c2ccc(Cl)cc2)C1 [Example 406, 4-(4-{[2-(4-chlorophenyl)-4,4-dimethylcyclohex-1-en-1-yl]methyl}piperazin-1-yl)-N-({5-cyano-6-[(4-fluorotetrahydro-2H-pyran-4-yl)methoxy]pyridin-3-yl}sulfonyl)-2-(1H-indazol-4-yloxy)benzamide] | 0.035 | 44.6 | 20.5 | –
CC1(C)CCC(CN2CCN(c3ccc(C(=O)NS(=O)(=O)c4ccc(NCCC#N)c([N+](=O)[O-])c4)c(Oc4cccc5[nH]ccc45)c3)CC2)=C(c2ccc(Cl)cc2)C1 [Example 320, 4-(4-{[2-(4-chlorophenyl)-4,4-dimethylcyclohex-1-en-1-yl]methyl}piperazin-1-yl)-N-({4-[(2-cyanoethyl)amino]-3-nitrophenyl}sulfonyl)-2-(1H-indol-4-yloxy)benzamide] | 1.24 | 129 | 41.6 | –
CC1(C)CCC(CN2CCN(c3ccc(C(=O)NS(=O)(=O)c4ccc(NCC5CCN(C(=O)OCc6ccccc6)CC5)c([N+](=O)[O-])c4)c(Oc4ccc5[nH]ccc5c4)c3)CC2)=C(c2ccc(Cl)cc2)C1 [Example 356, benzyl 4-({[4-({[4-(4-{[2-(4-chlorophenyl)-4,4-dimethylcyclohex-1-en-1-yl]methyl}piperazin-1-yl)-2-(1H-indol-5-yloxy)benzoyl]amino}sulfonyl)-2-nitrophenyl]amino}methyl)piperidine-1-carboxylate] | 5.02 | > 660 | > 500 | –
CN1CCN(Nc2ccc(S(=O)(=O)NC(=O)c3ccc(N4CCN(CC5=C(c6ccc(Cl)cc6)CC(C)(C)CC5)CC4)cc3Oc3ccc4[nH]ccc4c3)cc2S(=O)(=O)C(F)(F)F)CC1 [Example 220, 4-(4-{[2-(4-chlorophenyl)-4,4-dimethylcyclohex-1-en-1-yl]methyl}piperazin-1-yl)-2-(1H-indol-5-yloxy)-N-({4-[(4-methylpiperazin-1-yl)amino]-3-[(trifluoromethyl)sulfonyl]phenyl}sulfonyl)benzamide] | 0.192 | 31.4 | 24 | –
CN1CCC(Oc2ccc(S(=O)(=O)NC(=O)c3ccc(N4CCN(CC5=C(c6ccc(Cl)cc6)CC(C)(C)CC5)CC4)cc3Oc3ccc4[nH]ccc4c3)cc2[N+](=O)[O-])CC1 [Example 353, 4-(4-{[2-(4-chlorophenyl)-4,4-dimethylcyclohex-1-en-1-yl]methyl}piperazin-1-yl)-2-(1H-indol-5-yloxy)-N-({4-[(1-methylpiperidin-4-yl)oxy]-3-nitrophenyl}sulfonyl)benzamide] | 0.292 | > 660 | 58.3 | –
CC(C1=C(c2ccc(Cl)cc2)CC(C)(C)CC1)N1CCN(c2ccc(C(=O)NS(=O)(=O)c3ccc(NC4CCN(C5CCOCC5)CC4)c([N+](=O)[O-])c3)c(Oc3ccc4[nH]ccc4c3)c2)CC1 (stereo not shown) [Example 258, 4-(4-{1-[2-(4-chlorophenyl)-4,4-dimethylcyclohex-1-en-1-yl]ethyl}piperazin-1-yl)-2-(1H-indol-5-yloxy)-N-({3-nitro-4-[(1-tetrahydro-2H-pyran-4-ylpiperidin-4-yl)amino]phenyl}sulfonyl)benzamide] | 0.048 | 4.08 | 9.11 | –
CC1(C)CCC(CN2CCN(c3ccc(C(=O)NS(=O)(=O)c4ccc(NC(CO)C5CCOCC5)c([N+](=O)[O-])c4)c(Oc4ccc5[nH]ccc5c4)c3)CC2)=C(c2ccc(Cl)cc2)C1 (stereo not shown) [Example 242, 4-(4-{[2-(4-chlorophenyl)-4,4-dimethylcyclohex-1-en-1-yl]methyl}piperazin-1-yl)-N-({4-[(2-hydroxy-1-tetrahydro-2H-pyran-4-ylethyl)amino]-3-nitrophenyl}sulfonyl)-2-(1H-indol-5-yloxy)benzamide] | 1.8 | > 660 | 165 | –
CC1(C)CCC(CN2CCN(c3ccc(C(=O)NS(=O)(=O)c4ccc(N[C@@H]5CCN(Cc6ccccc6)C[C@@H]5O)c([N+](=O)[O-])c4)c(Oc4ccc5[nH]ccc5c4)c3)CC2)=C(c2ccc(Cl)cc2)C1 [Example 187, N-[(4-{[(3S,4R)-1-benzyl-3-hydroxypiperidin-4-yl]amino}-3-nitrophenyl)sulfonyl]-4-(4-{[2-(4-chlorophenyl)-4,4-dimethylcyclohex-1-en-1-yl]methyl}piperazin-1-yl)-2-(1H-indol-5-yloxy)benzamide] | 0.329 | > 660 | 341 | –
CN1CCC(Nc2ccc(S(=O)(=O)NC(=O)c3ccc(N4CCN(CC5=C(c6ccc(Cl)cc6)CC(C)(C)CC5)CC4)cc3Nc3cccnc3)cc2[N+](=O)[O-])CC1 [Example 396, 4-(4-{[2-(4-chlorophenyl)-4,4-dimethylcyclohex-1-en-1-yl]methyl}piperazin-1-yl)-N-({4-[(1-methylpiperidin-4-yl)amino]-3-nitrophenyl}sulfonyl)-2-(pyridin-3-ylamino)benzamide] | 116 | > 660000 | > 500 | >5705.9
COCCNc1ccc(S(=O)(=O)NC(=O)c2ccc(N3CCN(CC4=C(c5ccc(Cl)cc5)CC(C)(C)CC4)CC3)cc2Oc2cccc3[nH]ccc23)cc1S(=O)(=O)C(F)(F)F [Example 309, 4-(4-{[2-(4-chlorophenyl)-4,4-dimethylcyclohex-1-en-1-yl]methyl}piperazin-1-yl)-2-(1H-indol-4-yloxy)-N-({4-[(2-methoxyethyl)amino]-3-[(trifluoromethyl)sulfonyl]phenyl}sulfonyl)benzamide] | 4.42 | > 660 | > 500 | –
CC1(C)CCC(CN2CCN(c3ccc(C(=O)NS(=O)(=O)c4ccc(NC5CCN(C6CCOCC6)CC5)c([N+](=O)[O-])c4)c(Oc4ccc5[nH]ccc5c4)c3F)CC2)=C(c2ccc(Cl)cc2)C1 [Example 185, 4-(4-{[2-(4-chlorophenyl)-4,4-dimethylcyclohex-1-en-1-yl]methyl}piperazin-1-yl)-3-fluoro-2-(1H-indol-5-yloxy)-N-({3-nitro-4-[(1-tetrahydro-2H-pyran-4-ylpiperidin-4-yl)amino]phenyl}sulfonyl)benzamide] | 0.228 | 82.6 | 63.4 | –
CN1CCC(Nc2ccc(S(=O)(=O)NC(=O)c3ccc(N4CCN(CC5=C(c6ccc(Cl)cc6)CC(C)(C)CC5)CC4)c(F)c3Oc3ccc4[nH]ccc4c3)cc2[N+](=O)[O-])CC1 [Example 184, 4-(4-{[2-(4-chlorophenyl)-4,4-dimethylcyclohex-1-en-1-yl]methyl}piperazin-1-yl)-3-fluoro-2-(1H-indol-5-yloxy)-N-({4-[(1-methylpiperidin-4-yl)amino]-3-nitrophenyl}sulfonyl)benzamide] | 0.281 | > 660 | 27 | –
CN(C)CCCc1cccc(-c2ccc(Cl)cc2)c1CN1CCN(c2ccc(C(=O)NS(=O)(=O)c3ccc(NCC4CCOCC4)c([N+](=O)[O-])c3)c(Oc3cccc4[nH]ccc34)c2)CC1 [Example 196, 4-[4-({4′-chloro-3-[3-(dimethylamino)propyl]-1,1′-biphenyl-2-yl}methyl)piperazin-1-yl]-2-(1H-indol-4-yloxy)-N-({3-nitro-4-[(tetrahydro-2H-pyran-4-ylmethyl)amino]phenyl}sulfonyl)benzamide] | 0.032 | > 660 | 12.4 | –
CC1(C)CCC(CN2CCN(c3ccc(C(=O)NS(=O)(=O)c4ccc(OCC5CCOCC5)c(C(N)=O)c4)c(Oc4ccc5[nH]ccc5c4)c3)CC2)=C(c2ccc(Cl)cc2)C1 [Example 357, N-{[3-(aminocarbonyl)-4-(tetrahydro-2H-pyran-4-ylmethoxy)phenyl]sulfonyl}-4-(4-{[2-(4-chlorophenyl)-4,4-dimethylcyclohex-1-en-1-yl]methyl}piperazin-1-yl)-2-(1H-indol-5-yloxy)benzamide] | 1.34 | > 660 | > 500 | –
COc1ccc(Nc2ccc(S(=O)(=O)NC(=O)c3ccc(N4CCN(CC5=C(c6ccc(Cl)cc6)CC(C)(C)CC5)CC4)cc3Oc3ccc4[nH]ccc4c3)cc2[N+](=O)[O-])cc1 [Example 372, 4-(4-{[2-(4-chlorophenyl)-4,4-dimethylcyclohex-1-en-1-yl]methyl}piperazin-1-yl)-2-(1H-indol-5-yloxy)-N-({4-[(4-methoxyphenyl)amino]-3-nitrophenyl}sulfonyl)benzamide] | > 1200 | > 660 | > 500 | –
CC(c1ccccc1-c1ccc(Cl)cc1)N1CCN(c2ccc(C(=O)NS(=O)(=O)c3ccc(NN4CCN(C)CC4)c([N+](=O)[O-])c3)c(Oc3cccc4[nH]ccc34)c2)CC1 (stereo not shown) [Example 217, 4-{4-[1-(4′-chloro-1,1′-biphenyl-2-yl)ethyl]piperazin-1-yl}-2-(1H-indol-4-yloxy)-N-({4-[(4-methylpiperazin-1-yl)amino]-3-nitrophenyl}sulfonyl)benzamide] | 0.262 | 44.8 | 20.8 | –
